{"source": "patent EP4759807A1", "about": "“PROTEOLYSIS TARGETING CHIMERA COMPOUND FOR DEGRADING IRAK4 AND USE THEREOF” (Shenzhen Zhongge Biological Technology Co., Ltd., priority 2023, dated 2025)", "key": {"[1]": {"biological_target": "T1, IRAK4 (Homo sapiens, UniProt Q9NWZ3)", "T1 sequence (Q9NWZ3 1-460)": "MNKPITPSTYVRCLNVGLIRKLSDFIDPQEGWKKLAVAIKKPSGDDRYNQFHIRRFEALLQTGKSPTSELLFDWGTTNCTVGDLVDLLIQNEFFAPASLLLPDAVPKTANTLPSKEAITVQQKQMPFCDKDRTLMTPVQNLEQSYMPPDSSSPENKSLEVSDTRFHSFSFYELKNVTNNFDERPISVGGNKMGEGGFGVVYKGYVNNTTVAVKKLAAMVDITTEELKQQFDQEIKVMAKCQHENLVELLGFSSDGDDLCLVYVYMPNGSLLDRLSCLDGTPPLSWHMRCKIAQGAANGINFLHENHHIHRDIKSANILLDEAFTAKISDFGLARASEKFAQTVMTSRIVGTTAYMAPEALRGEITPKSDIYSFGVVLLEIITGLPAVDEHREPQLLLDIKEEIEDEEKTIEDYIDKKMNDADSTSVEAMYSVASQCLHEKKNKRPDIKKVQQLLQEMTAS", "test": "WB detection of proteolysis (Western Blot, THP-1 cells)", "type": "cell-based", "settings": "Western Blot, THP-1 cells, 24 h", "procedure,_shortened": "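IRAK4 level in RIPA lysates read by Western blot with Odyssey imaging; values from bell-shaped non-linear fit with two four-parameter sections (Plateau1, Plateau2, Dip, LogEC50_1/2, nH1/2).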"}, "[2]": {"system": "IFN-γ, IL-1β, IL-6, IL-10, IL-12p70, TNF-α and IL-23 secretion by hPBMC", "test": "Inhibition of LPS-induced secretion of multiple cytokines by human-derived PBMC (MSD detection)", "type": "cell-based", "settings": "8 h compound, then LPS 2 ng/mL 16 h; compared with KT474", "experimental": "Experiment materials: Human-derived peripheral blood mononuclear cells (hPBMC) were provided by Hemacare Donor Center.\nThawing and plating PBMCs: The frozen PBMC was removed from liquid nitrogen, thawed in a 37°C water bath kettle, then resuspended with 10 mL of complete medium, and centrifuged at 350 g at room temperature for 5 min, and the supernatant was discarded. The cells were resuspended with 5 mL of complete medium, and the cells were counted. The cells were diluted to 2 × 10^6/mL based on the counting results, and 0.1 mL (2 × 10^5 cells) was added to each well of the 96-well plate.\nAfter uniform mixing, incubation was performed in an incubator at 37°C and 5% CO2 for 8 h.\nLPS induction: After 8 h, 50 µL of LPS was added to all wells to a final concentration of 2 ng/mL. After uniform mixing, incubation was further performed in an incubator at 37°C and 5% CO2 for 16 h. […]\nMSD detection: The buffer was added to the freeze-dried human inflammatory factor standard mixture to prepare a highest concentration standard (standard 1), and then serial 4-fold dilutions were performed and a standard with a concentration of 0 was prepared (a total of 10 concentrations). […] The plate was washed 3 times, and then 150 µL of 2× reading buffer was added and the plate was read using an MSD instrument."}}, "data": [{"smiles": "Cn1c(=O)n(C2CCC(=O)NC2=O)c2cccc(N3CCC(N4CCN(C[C@H]5CC[C@H](n6cc(-n7cc(-c8cnn9ccc(N%10CCC[C@H](O)C%10)nc89)nn7)c(C(F)F)n6)CC5)CC4)CC3)c21", "note": "(stereo partly drawn) [Example 146]", "values": [{"measurement": "DC50", "setting": "[1]; read-out: DC50", "result": "< 10", "unit": "nM"}, {"measurement": "Dmax", "setting": "[1]; read-out: Dmax", "result": "> 70", "unit": "%"}, {"measurement": "ability to inhibit the secretion of multiple cytokines by human-derived PBMC", "setting": "[2]", "result": "significantly better than that of positive reference KT474"}]}]}
